pIC50: −log10 of the molar value.

This passage reports IC50 results from patent US8754113B2, “Oxadiazole derivative having endothelial lipase inhibitory activity” (Shionogi & Co., Ltd., priority 2009, dated 2014).

human endothelial lipase (EL), sequence (Q9Y5X9 21-500): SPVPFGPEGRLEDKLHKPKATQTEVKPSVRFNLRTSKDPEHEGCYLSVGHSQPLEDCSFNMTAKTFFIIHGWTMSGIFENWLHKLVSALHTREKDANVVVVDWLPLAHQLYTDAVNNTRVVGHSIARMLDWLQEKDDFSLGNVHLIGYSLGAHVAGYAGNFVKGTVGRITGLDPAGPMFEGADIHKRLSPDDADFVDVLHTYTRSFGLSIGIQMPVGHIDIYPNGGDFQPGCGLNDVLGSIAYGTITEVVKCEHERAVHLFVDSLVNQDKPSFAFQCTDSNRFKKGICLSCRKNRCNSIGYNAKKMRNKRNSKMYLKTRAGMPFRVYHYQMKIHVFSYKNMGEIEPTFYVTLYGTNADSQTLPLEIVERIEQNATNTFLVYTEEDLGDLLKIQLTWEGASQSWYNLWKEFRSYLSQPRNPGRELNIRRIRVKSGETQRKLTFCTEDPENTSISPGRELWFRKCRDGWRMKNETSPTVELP

This assay has as its target human endothelial lipase (EL) (Homo sapiens (Human), UniProt Q9Y5X9). As to the kind of experiment: Human endothelial lipase (EL) inhibitory activity using human HDL (NEFA release). Type of assay: biochemical. Particulars: human HDL 2 mg/ml substrate, 4-hour reaction at 37° C., NEFA readout; read-out: IC50 (50% inhibitory concentration), EL inhibitory activity. On the procedure: Evaluation Method of Human Endothelial Lipase (EL) Inhibitory Activity Using Human High-Density Lipoprotein (HDL)
After the present compound dissolved in DMSO was added to become 0.5% DMSO to the reaction buffer consisting of 20 mM tris hydrochloric acid (pH7.4), bovine serum albumin (0.5%), calcium chloride (4 mM), sodium chloride (150 mM) and human HDL (2 mg/ml), the EL enzyme was added (total volume was 20 μl).
After 4-hour reaction at 37° C., non-esterified fatty acid (NEFA) generated from HDL by EL was measured with a commercially available assay kit and the amount of NEFA was used as an index of enzyme activity.
For `N#CCNC(=O)Cc1nnc(Cc2cnc3cc(-c4ccccc4)ccc3n2)o1` [Compound I-2-215], the pIC50 is 5.60.

Regarding `N#CC1(NC(=O)Cc2nnc(Cc3nc4cnc(-c5ccccc5)cc4s3)o2)CC1` [Compound A-10], the pIC50 was 8.10. In the case of `O=C(Cc1nnc(Cc2nc3ccc(-c4ccccc4)cc3s2)o1)NCCO` [Compound I-1-31] it was 7.08. In the case of `Cn1cc(-c2ccc3nc(Cc4nnc(CC(=O)NC5(C#N)CC5)o4)sc3c2Cl)cn1` [Compound A-21] it was 7.19; in that of `N#CC1(NC(=O)Cc2nnc(Cc3nc4ccc(-c5ccccn5)cc4s3)o2)CC1` [Compound I-3-1], 7.96; in that of `N#CC1(NC(=O)Cc2nnc(Cc3nc4ccc(-c5ccc(Cl)s5)cc4s3)o2)CC1` [Compound I-3-56], 8.40. Take `O=C(NCCc1nnc(Cc2nc3ccc(-c4ccccc4)cc3s2)o1)C1CC1` [Compound I-1-7]: the pIC50 was 7.72. In the case of `N#CC1(NC(=O)Cc2nnc(Cc3nc4c(-c5ccccc5)cccc4s3)o2)CC1` [Compound I-3-11] it was 8.05; in that of `Cn1ccc(-c2ccc3nc(Cc4nnc(CC(=O)NC5(C#N)CC5)o4)sc3c2)n1` [Compound I-2-198], 7.82; in that of `N#CCNC(=O)Cc1nnc(Cc2nc3c(Br)cccc3s2)o1` [Compound I-2-196], 7.44.

Consider `N#CCNC(=O)Cc1nnc(Cc2ccc(-c3ccccc3)cn2)o1` [Compound I-2-216], for which the pIC50 is 4.64. In the case of `Cn1cc(-c2ccc3sc(Cc4nnc(CC(=O)NC5(C#N)CC5)o4)nc3c2)cn1` [Compound I-3-4] it was 8.40.

Take `N#CC1(NC(=O)Cc2nnc(Cc3nc4ccc(-c5ncc(F)cn5)cc4s3)o2)CC1` [Compound I-3-112]: the pIC50 was 7.36. With `Cc1ccc(-c2ccc3nc(Cc4nnc(CC(=O)NC5(C#N)CC5)o4)sc3c2F)s1` [Compound A-9], the pIC50 was 7.96.

For `O=C(Cc1nnc(Cc2nc3c(-c4ccccc4)cccc3s2)o1)NC1(CO)CC1` [Compound I-3-12], the pIC50 was 7.11.

For the molecule `O=C(Cc1nnc(Cc2nc3ccc(-c4ccccc4)cc3s2)o1)N1CC(O)C1` [Compound I-3-23], the pIC50 was 6.40. In the case of `CC(C#N)NC(=O)Cc1nnc(Cc2nc3ccc(-c4ccccc4)cc3s2)o1` (stereo not drawn) [Compound I-3-37] it was 8.70; in that of `N#CCNC(=O)Cc1nnc(Cc2nc3ccc(-c4ccccc4)cc3s2)o1` [Compound I-1-3], 7.59.

In the case of `N#CCNC(=O)Cc1nnc(Cc2ccc3cc(-c4ccccc4)ccc3n2)o1` [Compound I-2-204], the pIC50 is 6.72. In the case of `N#CC1(NC(=O)Cc2nnc(Cc3nc4ccc(-c5ccc(Cl)cc5)c(F)c4s3)o2)CC1` [Compound A-13] it was 7.66; in that of `N#CC1(NC(=O)Cc2nnc(Cc3nc4ccc(Cc5ccc(F)cc5)cc4s3)o2)CC1` [Compound I-3-41], 7.85; in that of `O=C(Cc1nnc(Cc2nc3ccc(-c4ccccc4)cc3s2)o1)N1CCOCC1` [Compound I-1-82], 7.28. In the case of `N#CC1(NC(=O)Cc2nnc(Cc3nc4ccc(-c5ncccn5)cc4s3)o2)CC1` [Compound I-3-145] it was 7.16.

Turning to `O=C(Cc1nnc(Cc2nc3ccc(-c4ccccc4)cc3s2)o1)Nc1ccccc1` [Compound I-1-83], the pIC50 is 8.30. In the case of `CS(=O)(=O)NCc1nnc(Cc2nc3ccc(-c4ccccc4)cc3s2)o1` [Compound I-1-23] it was 7.14; in that of `COc1cc(-c2cnn(C)c2)cc2sc(Cc3nnc(CC(=O)NC4(C#N)CC4)o3)nc12` [Compound A-25], 7.38; in that of `Cc1ccc(-c2ccc3nc(Cc4nnc(CC(=O)NC5(C#N)CC5)o4)sc3n2)s1` [Compound A-14], 6.80.

On to `N#CC1(NC(=O)Cc2nnc(Cc3nc4ccc(-c5cc6ccccc6s5)cc4s3)o2)CC1` [Compound I-3-93], for which the pIC50 is 7.55. In the case of `O=C(Cc1nnc(Cc2nc3ccc(-c4ccc(F)cc4)cc3s2)o1)NC1(CO)CC1` [Compound I-3-6] it was 7.28; in that of `O=C(O)CCc1nnc(Cc2nc3ccc(-c4ccccc4)cc3s2)o1` [Compound I-1-9], 6.59; in that of `NS(=O)(=O)NCc1nnc(Cc2nc3ccc(-c4ccccc4)cc3s2)o1` [Compound I-1-85], 8.22. In the case of `N#CC1(NC(=O)Cc2nnc(Cc3nc4ccc(-c5ccccc5)c(Cl)c4s3)o2)CC1` [Compound A-17] it was 7.39; in that of `N#CCNC(=O)Cc1nnc(Cc2nc3cc(-c4ccccc4)ccc3o2)o1` [Compound I-1-43], 6.41. In the case of `O=C(O)Cc1nnc(Cc2nc3ccc(-c4ccccc4)cc3s2)o1` [Compound I-1-2] it was 6.92; in that of `N#CC1(NC(=O)Cc2nnc(Cc3nc4ccc(-c5ccc(Cl)cn5)cc4s3)o2)CC1` [Compound I-3-146], 7.57.

As for `N#CC1(NC(=O)Cc2nnc(Cc3nc4ccc(C5=CCOCC5)cc4s3)o2)CC1` [Compound I-3-48], the pIC50 was 8.10.

Regarding `Cn1cc(-c2ccc3nc(Cc4nnc(CC(=O)NC5(C#N)CC5)o4)sc3n2)cn1` [Compound A-19], the pIC50 is 6.96. On to `N#CCNC(=O)Cc1nnc(C(F)(F)c2nc3ccc(-c4ccccc4)cc3s2)o1` [Compound I-3-21], for which the pIC50 is 6.60. In the case of `N#CC1(NC(=O)Cc2nnc(Cc3nc4ccc(-c5ccc(F)s5)cc4s3)o2)CC1` [Compound I-3-163] it was 8.05. In the case of `N#CCNC(=O)Cc1nnc(Cc2nc3c(-c4ccccc4)cccc3s2)o1` [Compound I-2-197], the pIC50 was 7.92. In the case of `N#CCCc1nnc(Cc2nc3ccc(-c4ccccc4)cc3s2)o1` [Compound I-1-27] it was 7.07; in that of `O=C(Cc1nnc(Cc2nc3ccc(-c4ccccc4)cc3s2)o1)NC1COC1` [Compound I-3-30], 7.34.
